Assay results taken from patent US9399646B2 (Genentech, Inc., priority 2010, dated 2016).

Legend:
ER-α in MCF-7 cells = biological target: T1, ER-α in MCF-7 cells (Homo sapiens, UniProt P03372); test: Breast cancer cell ER-α in cell western assay (SP1); assay type: cell-based; parameters: endogenous in cells; host or cells: MCF-7; conditions: 4 or 24 hr post compound addition; for Emax: MCF7, SP1 antibody, read-out: ER-α In Cell Western Assay (SP1) Max Response; for DC50: SP1 antibody, read-out: ER-α In Cell Western Assay (SP1) IC50
T1 sequence (P03372 1-595): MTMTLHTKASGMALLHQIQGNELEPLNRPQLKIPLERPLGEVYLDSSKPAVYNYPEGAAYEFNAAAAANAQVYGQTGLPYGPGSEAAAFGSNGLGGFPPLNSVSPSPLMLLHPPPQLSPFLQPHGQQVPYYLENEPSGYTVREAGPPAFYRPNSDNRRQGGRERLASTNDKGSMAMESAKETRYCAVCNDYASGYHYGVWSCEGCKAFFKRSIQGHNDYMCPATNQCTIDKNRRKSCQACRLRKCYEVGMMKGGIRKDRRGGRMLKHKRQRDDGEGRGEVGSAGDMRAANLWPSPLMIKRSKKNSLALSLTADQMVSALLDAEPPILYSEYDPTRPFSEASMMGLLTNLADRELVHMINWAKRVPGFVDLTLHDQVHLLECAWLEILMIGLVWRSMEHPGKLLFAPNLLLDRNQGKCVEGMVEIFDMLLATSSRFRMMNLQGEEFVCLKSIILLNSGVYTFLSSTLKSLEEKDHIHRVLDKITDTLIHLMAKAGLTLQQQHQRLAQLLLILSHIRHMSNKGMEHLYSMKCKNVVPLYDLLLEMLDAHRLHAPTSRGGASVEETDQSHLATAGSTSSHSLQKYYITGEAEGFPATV
Summary of the method: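 Percent remaining ER: SP1 immunofluorescence normalized to DRAQ5 nuclear stain, compared with untreated controls. Treatment lasted 4 or 24 hr across 0.3–0.000003 μM final in MCF-7.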

MCF-7 cells = test: Breast cancer cell viability assay (CellTiter-Glo, 5 days); assay type: cell-based; conditions: 5 days' compound exposure; for IC50: Homo sapiens, MCF7, 120 h
Summary of the method: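 MCF-7 cells, 320 per well in RPMI with 10% FBS and 20 mM HEPES, adhered overnight, then exposed 5 days to an eleven-point semilog dilution (final 0.3-0.000003 μM). CellTiter-Glo luminescence read; % viability = (sample − cell-free background)/(untreated − background) × 100.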

| Emax (ER-α in MCF-7 cells) [%] | DC50 (ER-α in MCF-7 cells) [nM] | IC50 (MCF-7 cells) [nM] | SMILES | MCF7 Viability Assay Max Response (MCF-7 cells) |
| --- | --- | --- | --- | --- |
| ≥ 40 | ≤ 100 | ≤ 100 | CCCCCOc1cccc(/C(CC)=C(\c2ccc(/C=C/C(=O)O)cc2)c2ccc3[nH]ncc3c2)c1 [Compound 349, (E)-3-(4-((E)-1-(1H-Indazol-5-yl)-2-(3-(pentyloxy)phenyl)but-1-en-1-yl)phenyl)acrylic acid] | ++ (++ = a single % value ≧ 40%) |
| ≥ 40 | ≤ 100 | > 100 | CCCCCCOc1cccc(/C(CC)=C(\c2ccc(/C=C/C(=O)O)cc2)c2ccc3[nH]ncc3c2)c1 [Compound 350, (E)-3-(4-((E)-2-(3-(Hexyloxy)phenyl)-1-(1H-indazol-5-yl)but-1-en-1-yl)phenyl)acrylic acid] | ++ (++ = a single % value ≧ 40%) |
| ≥ 40 | > 100 | > 100 | CC/C(=C(/c1ccc(/C=C/C(=O)O)cc1)c1ccc2[nH]ncc2c1)c1cccc(OCCCC(=O)O)c1 [Compound 351, 4-(3-((E)-1-(4-((E)-2-Carboxyvinyl)phenyl)-1-(1H-indazol-5-yl)but-1-en-2-yl)phenoxy)butanoic acid] | + (+ = a single % value < 40%) |
| ≥ 40 | > 100 | > 100 | CC/C(=C(/c1ccc(/C=C/C(=O)O)cc1)c1ccc2[nH]ncc2c1)c1cccc(OCCCCC(=O)O)c1 [Compound 352, 5-(3-((E)-1-(4-((E)-2-Carboxyvinyl)phenyl)-1-(1H-indazol-5-yl)but-1-en-2-yl)phenoxy)pentanoic acid] | + (+ = a single % value < 40%) |
| ≥ 40 | > 100 | > 100 | CC/C(=C(/c1ccc(/C=C/C(=O)O)cc1)c1ccc2[nH]ncc2c1)c1ccc(OCCCC(=O)O)cc1 [Compound 353, 4-(4-((E)-1-(4-((E)-2-Carboxyvinyl)phenyl)-1-(1H-indazol-5-yl)but-1-en-2-yl)phenoxy)butanoic acid] | + (+ = a single % value < 40%) |
| ≥ 40 | > 100 | > 100 | CC/C(=C(/c1ccc(/C=C/C(=O)O)cc1)c1ccc2[nH]ncc2c1)c1ccc(OCCCCC(=O)O)cc1 [Compound 354, 5-(4-((E)-1-(4-((E)-2-Carboxyvinyl)phenyl)-1-(1H-indazol-5-yl)but-1-en-2-yl)phenoxy)pentanoic acid] | + (+ = a single % value < 40%) |
| ≥ 40 | ≤ 100 | > 100 | CCCCCOc1ccc(/C(CC)=C(\c2ccc(/C=C/C(=O)O)cc2)c2ccc3[nH]ncc3c2)cc1 [Compound 356, (E)-3-(4-((E)-1-(1H-Indazol-5-yl)-2-(4-(pentyloxy)phenyl)but-1-en-1-yl)phenyl)acrylic acid] | ++ (++ = a single % value ≧ 40%) |
| ≥ 40 | > 100 | > 100 | CCCCCCOc1ccc(/C(CC)=C(\c2ccc(/C=C/C(=O)O)cc2)c2ccc3[nH]ncc3c2)cc1 [Compound 357, (E)-3-(4-((E)-2-(4-(Hexyloxy)phenyl)-1-(1H-indazol-5-yl)but-1-en-1-yl)phenyl)acrylic acid] | ++ (++ = a single % value ≧ 40%) |
| ≥ 40 | ≤ 100 | ≤ 100 | CC/C(=C(/c1ccc(/C=C/C(=O)O)cc1)c1ccc2[nH]ncc2c1)c1cccc(OCc2ccccc2)c1 [Compound 358, (E)-3-(4-((E)-2-(3-(Benzyloxy)phenyl)-1-(1H-indazol-5-yl)but-1-en-1-yl)phenyl)acrylic acid] | ++ (++ = a single % value ≧ 40%) |
| ≥ 40 | ≤ 100 | ≤ 100 | CC/C(=C(/c1ccc(/C=C/C(=O)O)cc1)c1ccc2[nH]ncc2c1)c1cccc(OCc2cccnc2)c1 [Compound 359, (E)-3-(4-((E)-1-(1H-Indazol-5-yl)-2-(3-(pyridin-3-ylmethoxy)phenyl)but-1-en-1-yl)phenyl)acrylic acid] | ++ (++ = a single % value ≧ 40%) |
